One block for each compound: values may come before it.
Tests used:
[1] = target: Prostaglandin E2 receptor EP4 subtype (Homo sapiens, UniProt P35408)
Description: Antagonist activity at human EP4 expressed in CHO cells coexpressing G16-alpha assessed as intracellular calcium flux preincubated for 15 mins followed by addition of PGE2 by calcium flux assay

CYP2E1 = CYP2E1 (Homo sapiens, UniProt P05181); experiment: Inhibition of CYP2E1 in human liver microsomes at 20 uM using chlorzoxazone as substrate incubated for 60 mins by HPLC analysis relative to control; assay type: ADME; conditions: probe chlorzoxazone
CYP1A2 = target: T1, CYP1A2 (Homo sapiens, UniProt P05177); experiment: Inhibition of CYP1A2 in human liver microsomes at 20 uM using phenacetin as substrate incubated for 30 mins by HPLC analysis relative to control; assay type: ADME; conditions: probe phenacetin
T1 sequence (P05177 whole entry): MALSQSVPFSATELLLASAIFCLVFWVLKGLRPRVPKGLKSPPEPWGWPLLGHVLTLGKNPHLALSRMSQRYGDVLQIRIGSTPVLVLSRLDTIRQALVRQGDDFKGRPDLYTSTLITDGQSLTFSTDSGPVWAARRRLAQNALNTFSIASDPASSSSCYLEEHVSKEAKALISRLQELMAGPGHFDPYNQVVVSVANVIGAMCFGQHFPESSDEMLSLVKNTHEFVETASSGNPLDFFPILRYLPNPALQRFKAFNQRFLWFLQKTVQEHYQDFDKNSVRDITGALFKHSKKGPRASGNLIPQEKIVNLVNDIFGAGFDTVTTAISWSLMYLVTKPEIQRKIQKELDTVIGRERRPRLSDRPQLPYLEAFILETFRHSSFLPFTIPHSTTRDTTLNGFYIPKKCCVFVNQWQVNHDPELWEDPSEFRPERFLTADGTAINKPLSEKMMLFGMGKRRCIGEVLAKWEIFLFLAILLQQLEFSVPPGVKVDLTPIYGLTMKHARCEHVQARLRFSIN

CYP2D6 = CYP2D6 (Homo sapiens, UniProt P10635); experiment: Inhibition of CYP2D6 in human liver microsomes at 20 uM using dextromethorphan as substrate incubated for 60 mins by HPLC analysis relative to control; assay type: ADME; conditions: probe dextromethorphan
Cytochrome P450 3A4 = Cytochrome P450 3A4 (Homo sapiens, UniProt P08684); experiment: Inhibition of CYP3A4 in human liver microsomes at 20 uM using testosterone as substrate incubated for 60 mins by HPLC analysis; assay type: ADME; conditions: 1 h
[2] = target: T2, Prostaglandin E2 receptor EP1 subtype (Homo sapiens, UniProt P34995); experiment: Antagonist activity at human EP1 expressed in CHO cells coexpressing G16-alpha assessed as intracellular calcium flux preincubated for 15 mins followed by addition of PGE2 by calcium flux assay; assay type: functional, cell-based
T2 sequence (P34995 whole entry): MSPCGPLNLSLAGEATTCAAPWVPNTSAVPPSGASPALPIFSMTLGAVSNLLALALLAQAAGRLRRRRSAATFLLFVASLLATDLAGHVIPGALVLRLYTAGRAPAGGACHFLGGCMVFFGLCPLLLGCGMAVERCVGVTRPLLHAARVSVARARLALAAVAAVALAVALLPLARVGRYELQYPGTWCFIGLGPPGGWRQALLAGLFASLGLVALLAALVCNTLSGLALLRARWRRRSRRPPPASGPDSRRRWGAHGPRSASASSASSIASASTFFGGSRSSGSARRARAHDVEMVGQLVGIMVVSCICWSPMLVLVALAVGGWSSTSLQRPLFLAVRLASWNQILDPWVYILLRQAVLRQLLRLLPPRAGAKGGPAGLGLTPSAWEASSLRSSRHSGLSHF

CYP2C9 = CYP2C9 (Homo sapiens, UniProt P11712); experiment: Inhibition of CYP2C9 in human liver microsomes at 20 uM using tolbutamide as substrate incubated for 60 mins by HPLC analysis relative to control; assay type: ADME; conditions: probe tolbutamide
[3] = target: T3, Prostaglandin E2 receptor EP3 subtype (Homo sapiens, UniProt P43115)
T3 sequence (P43115 whole entry): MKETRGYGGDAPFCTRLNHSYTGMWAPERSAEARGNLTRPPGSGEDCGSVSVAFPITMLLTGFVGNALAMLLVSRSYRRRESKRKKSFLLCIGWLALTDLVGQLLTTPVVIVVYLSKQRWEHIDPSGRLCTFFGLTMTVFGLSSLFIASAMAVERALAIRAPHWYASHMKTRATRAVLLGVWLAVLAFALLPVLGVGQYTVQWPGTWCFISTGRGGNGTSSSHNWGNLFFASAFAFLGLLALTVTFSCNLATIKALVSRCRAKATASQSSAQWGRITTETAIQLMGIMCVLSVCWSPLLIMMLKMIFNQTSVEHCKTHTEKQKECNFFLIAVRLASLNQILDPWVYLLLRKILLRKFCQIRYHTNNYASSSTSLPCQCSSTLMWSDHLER
Description: Antagonist activity at human EP3 expressed in CHO cells coexpressing G16-alpha assessed as intracellular calcium flux preincubated for 15 mins followed by addition of PGE2 by calcium flux assay

[4] = target: Prostaglandin E2 receptor EP2 subtype (Homo sapiens, UniProt P43116)
Description: Antagonist activity at human EP2 expressed in CHO cells coexpressing G16-alpha assessed as intracellular calcium flux preincubated for 15 mins followed by addition of PGE2 by calcium flux assay

CYP2B6 = target: T4, CYP2B6 (Homo sapiens, UniProt P20813); experiment: Inhibition of CYP2B6 in human liver microsomes at 20 uM incubated for 60 mins by HPLC analysis relative to control; assay type: ADME
T4 sequence (P20813 whole entry): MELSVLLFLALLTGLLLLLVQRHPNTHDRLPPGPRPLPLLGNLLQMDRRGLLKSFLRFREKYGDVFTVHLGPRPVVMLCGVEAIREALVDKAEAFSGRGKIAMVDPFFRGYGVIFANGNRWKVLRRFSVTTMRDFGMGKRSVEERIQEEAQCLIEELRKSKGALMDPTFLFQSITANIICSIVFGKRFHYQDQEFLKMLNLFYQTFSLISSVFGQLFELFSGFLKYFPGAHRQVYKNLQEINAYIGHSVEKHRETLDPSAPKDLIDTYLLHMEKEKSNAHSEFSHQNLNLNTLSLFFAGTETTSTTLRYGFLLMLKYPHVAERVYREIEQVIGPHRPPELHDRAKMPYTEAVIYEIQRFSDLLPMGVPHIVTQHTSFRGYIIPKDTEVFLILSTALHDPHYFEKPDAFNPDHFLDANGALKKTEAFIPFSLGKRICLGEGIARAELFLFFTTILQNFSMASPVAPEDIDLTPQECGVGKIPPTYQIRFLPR

[5] = target: Prostaglandin E2 receptor EP4 subtype (Mus musculus, UniProt P32240); experiment: Antagonist activity at mouse EP4 expressed in CHO cells coexpressing G16-alpha assessed as intracellular calcium flux preincubated for 15 mins followed by addition of PGE2 by calcium flux assay; assay type: functional, cell-based
in vitro [6] = conditions: human, liver microsomes
in vitro [7] = conditions: human, liver microsomes; remark: listed apart in the source
[8] = Metabolic stability in human liver microsomes assessed as compound remaining at 10 uM incubated for 1 hr

Chain of Prostaglandin E2 receptor EP4 subtype (Mus musculus, UniProt P32240) (P32240 whole entry): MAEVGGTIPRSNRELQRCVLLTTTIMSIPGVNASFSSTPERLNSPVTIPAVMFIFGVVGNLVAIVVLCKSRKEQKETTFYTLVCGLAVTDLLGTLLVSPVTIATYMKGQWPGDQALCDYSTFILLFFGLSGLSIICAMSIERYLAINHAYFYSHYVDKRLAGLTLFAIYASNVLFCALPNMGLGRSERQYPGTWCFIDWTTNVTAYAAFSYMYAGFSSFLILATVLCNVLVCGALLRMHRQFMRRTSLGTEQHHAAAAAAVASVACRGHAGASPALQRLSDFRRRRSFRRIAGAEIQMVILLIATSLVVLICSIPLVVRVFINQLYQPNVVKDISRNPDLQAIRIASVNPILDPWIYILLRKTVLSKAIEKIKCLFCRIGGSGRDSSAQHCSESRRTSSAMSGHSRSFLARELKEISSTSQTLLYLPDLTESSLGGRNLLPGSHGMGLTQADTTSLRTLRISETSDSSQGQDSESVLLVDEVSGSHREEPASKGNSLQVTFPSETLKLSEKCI
Chain of Prostaglandin E2 receptor EP4 subtype (Homo sapiens, UniProt P35408) (P35408 whole entry): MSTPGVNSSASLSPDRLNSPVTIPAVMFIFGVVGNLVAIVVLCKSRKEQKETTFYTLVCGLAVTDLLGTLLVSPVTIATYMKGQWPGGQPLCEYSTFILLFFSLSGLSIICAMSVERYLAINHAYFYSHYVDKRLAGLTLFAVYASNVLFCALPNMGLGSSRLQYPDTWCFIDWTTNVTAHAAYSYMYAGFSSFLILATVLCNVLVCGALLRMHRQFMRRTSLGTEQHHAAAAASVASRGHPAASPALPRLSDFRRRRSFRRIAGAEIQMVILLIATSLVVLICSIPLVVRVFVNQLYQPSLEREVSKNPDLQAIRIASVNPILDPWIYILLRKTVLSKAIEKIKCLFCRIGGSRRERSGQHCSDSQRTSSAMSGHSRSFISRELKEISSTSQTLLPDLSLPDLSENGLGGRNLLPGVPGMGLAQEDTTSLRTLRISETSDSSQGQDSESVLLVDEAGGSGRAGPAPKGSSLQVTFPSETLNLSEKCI
Chain of Prostaglandin E2 receptor EP2 subtype (P43116 whole entry): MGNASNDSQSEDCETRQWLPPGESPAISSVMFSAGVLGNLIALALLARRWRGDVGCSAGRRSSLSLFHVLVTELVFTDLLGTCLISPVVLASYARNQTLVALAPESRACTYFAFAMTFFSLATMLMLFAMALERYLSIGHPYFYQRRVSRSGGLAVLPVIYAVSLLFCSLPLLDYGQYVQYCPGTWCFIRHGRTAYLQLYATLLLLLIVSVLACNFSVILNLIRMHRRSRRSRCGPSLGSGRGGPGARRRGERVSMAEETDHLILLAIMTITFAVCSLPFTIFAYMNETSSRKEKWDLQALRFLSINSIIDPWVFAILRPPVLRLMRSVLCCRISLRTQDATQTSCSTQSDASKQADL
Chain of CYP2D6 (P10635 whole entry): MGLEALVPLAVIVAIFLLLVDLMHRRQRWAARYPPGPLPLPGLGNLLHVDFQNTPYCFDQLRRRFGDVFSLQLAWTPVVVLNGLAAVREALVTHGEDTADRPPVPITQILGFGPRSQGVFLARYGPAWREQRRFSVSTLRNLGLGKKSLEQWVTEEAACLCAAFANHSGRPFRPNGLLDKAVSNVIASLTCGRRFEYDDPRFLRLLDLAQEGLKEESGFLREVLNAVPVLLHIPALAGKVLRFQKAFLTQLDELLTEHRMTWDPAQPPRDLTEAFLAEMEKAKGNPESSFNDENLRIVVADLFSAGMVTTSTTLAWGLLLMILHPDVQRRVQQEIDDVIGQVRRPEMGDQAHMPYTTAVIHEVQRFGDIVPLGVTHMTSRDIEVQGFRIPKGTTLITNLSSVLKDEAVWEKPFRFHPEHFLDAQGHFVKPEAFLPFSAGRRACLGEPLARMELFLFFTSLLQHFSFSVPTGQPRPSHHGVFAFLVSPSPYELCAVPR
Chain of Cytochrome P450 3A4 (P08684 whole entry): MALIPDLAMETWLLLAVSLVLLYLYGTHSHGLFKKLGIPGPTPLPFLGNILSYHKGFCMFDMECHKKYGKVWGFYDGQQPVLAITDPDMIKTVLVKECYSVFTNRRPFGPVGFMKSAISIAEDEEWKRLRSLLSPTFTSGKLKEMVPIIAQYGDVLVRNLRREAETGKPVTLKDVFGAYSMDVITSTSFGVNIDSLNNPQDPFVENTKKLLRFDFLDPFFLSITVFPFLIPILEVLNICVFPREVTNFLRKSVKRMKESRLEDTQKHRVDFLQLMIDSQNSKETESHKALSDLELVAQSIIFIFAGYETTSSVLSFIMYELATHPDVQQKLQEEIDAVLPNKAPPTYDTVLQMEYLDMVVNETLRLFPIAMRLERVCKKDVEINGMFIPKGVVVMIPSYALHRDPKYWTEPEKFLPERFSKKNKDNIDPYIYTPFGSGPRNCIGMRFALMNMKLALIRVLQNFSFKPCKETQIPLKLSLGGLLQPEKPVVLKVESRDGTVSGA
Chain of CYP2E1 (P05181 whole entry): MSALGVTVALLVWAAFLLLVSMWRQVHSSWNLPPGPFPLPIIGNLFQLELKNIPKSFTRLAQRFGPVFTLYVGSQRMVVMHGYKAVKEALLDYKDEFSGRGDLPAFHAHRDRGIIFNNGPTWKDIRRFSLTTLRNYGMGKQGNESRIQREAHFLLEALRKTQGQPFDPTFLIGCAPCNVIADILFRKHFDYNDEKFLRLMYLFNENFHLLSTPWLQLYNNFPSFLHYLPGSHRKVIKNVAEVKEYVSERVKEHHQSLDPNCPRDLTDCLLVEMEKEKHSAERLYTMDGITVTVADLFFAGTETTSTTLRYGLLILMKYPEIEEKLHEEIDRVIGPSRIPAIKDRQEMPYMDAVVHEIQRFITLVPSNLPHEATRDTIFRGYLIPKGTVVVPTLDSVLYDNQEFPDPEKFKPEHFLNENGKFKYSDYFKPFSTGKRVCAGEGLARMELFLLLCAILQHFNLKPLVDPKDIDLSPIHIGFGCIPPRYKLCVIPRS
Chain of CYP2C9 (P11712 whole entry): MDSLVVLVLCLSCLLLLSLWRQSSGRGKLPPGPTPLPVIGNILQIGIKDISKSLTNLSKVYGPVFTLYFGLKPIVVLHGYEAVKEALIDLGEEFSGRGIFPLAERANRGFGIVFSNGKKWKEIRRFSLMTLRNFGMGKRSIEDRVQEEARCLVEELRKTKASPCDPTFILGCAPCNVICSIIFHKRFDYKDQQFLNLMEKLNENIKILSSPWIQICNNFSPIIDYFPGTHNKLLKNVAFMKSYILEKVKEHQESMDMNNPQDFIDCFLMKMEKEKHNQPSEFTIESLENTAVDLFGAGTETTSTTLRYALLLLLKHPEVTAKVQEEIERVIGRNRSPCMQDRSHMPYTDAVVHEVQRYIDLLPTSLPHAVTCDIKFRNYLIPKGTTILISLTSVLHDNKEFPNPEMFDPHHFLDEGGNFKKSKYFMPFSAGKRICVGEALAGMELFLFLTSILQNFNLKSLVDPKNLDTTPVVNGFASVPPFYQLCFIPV

SMILES: C[C@H](NC(=O)c1c(-c2ccccc2)nnn1CCOc1cccc(C(F)(F)F)c1)c1ccc(C(=O)O)cc1
inhibition at 1 h, 20 µM (CYP2E1): 67%
inhibition at 0.5 h, 20 µM (CYP1A2): 30%
inhibition at 1 h, 20 µM (CYP2D6): 30%
inhibition (INH) (Cytochrome P450 3A4): Not Active
IC50 [2]: > 10000 nM
inhibition at 1 h, 20 µM (CYP2C9): 67%
IC50 [3]: > 10000 nM
IC50 [4]: > 10000 nM
inhibition at 1 h, 20 µM (CYP2B6): 51%
IC50 [5]: 135 nM

SMILES: C[C@H](NC(=O)c1c(-c2ccccc2)nnn1CC1CCCCC1)c1ccc(C(=O)O)cc1
IC50 [1]: > 10000 nM

SMILES: C/C=C/c1nnn(Cc2ccc(C(F)(F)F)cc2)c1C(=O)NCC1CCC(C(=O)O)CC1 (configuration not stated)
IC50 [5]: 220 nM

SMILES: CCCc1c(C(=O)N[C@@H](C)c2ccc(C(=O)O)cc2)nnn1Cc1ccc(C(F)(F)F)cc1
IC50 [1]: > 10000 nM

SMILES: CCc1nnn(Cc2ccc(C(F)(F)F)cc2)c1C(=O)N[C@@H](C)c1ccc(C(=O)O)cc1
IC50 [1]: > 10000 nM

SMILES: C[C@H](NC(=O)c1cnnn1Cc1ccc(C(F)(F)F)cc1)c1ccc(C(=O)O)cc1
IC50 [1]: > 10000 nM

SMILES: C[C@H](NC(=O)c1c(C2=CCCC2)nnn1Cc1ccc(C(F)(F)F)cc1)c1ccc(C(=O)O)cc1
IC50 [2]: > 10000 nM
IC50 [3]: > 10000 nM
IC50 [4]: > 10000 nM
IC50 [5]: 400 nM

Other lines, results leading:

IC50 [1]: 161 nM
SMILES: C[C@H](NC(=O)c1c(C2CCCCC2)nnn1Cc1ccc(C(F)(F)F)cc1)c1ccc(C(=O)O)cc1

IC50 [1]: > 10000 nM
SMILES: C[C@H](NC(=O)c1nnn(Cc2cccc(C(F)(F)F)c2)c1C(F)(F)F)c1ccc(C(=O)O)cc1

microsomal CLint at 1 h, 10 µM (in vitro [6]): < 9.6 µL/min/mg
IC50 [2]: > 10000 nM
IC50 [1]: 8.5 nM
IC50 [3]: > 10000 nM
IC50 [4]: > 10000 nM
half-life at 1 h, 10 µM (in vitro [7]): > 2.42 h
remaining at 1 h, 10 µM [8]: 84.9%
IC50 [5]: 906 nM
SMILES: C[C@H](NC(=O)c1c(-c2ccccc2)nnn1Cc1ccc(C(F)(F)F)cc1)c1ccc(C(=O)O)cc1

IC50 [1]: 183 nM
SMILES: C[C@H](NC(=O)c1c(C2=CCCCC2)nnn1Cc1ccc(C(F)(F)F)cc1)c1ccc(C(=O)O)cc1

IC50 [1]: 9.3 nM
SMILES: COc1ccc(Cn2nnc(-c3ccccc3)c2C(=O)N[C@@H](C)c2ccc(C(=O)O)cc2)cc1

IC50 [1]: 96.8 nM
SMILES: COc1cccc(Cn2nnc(-c3ccccc3)c2C(=O)N[C@@H](C)c2ccc(C(=O)O)cc2)c1

IC50 [1]: 75.3 nM
SMILES: C[C@H](NC(=O)c1c(C2CCC2)nnn1Cc1ccc(C(F)(F)F)cc1)c1ccc(C(=O)O)cc1

microsomal CLint at 1 h, 10 µM (in vitro [6]): < 9.6 µL/min/mg
IC50 [2]: > 10000 nM
IC50 [1]: 45.6 nM
IC50 [3]: > 10000 nM
IC50 [4]: > 10000 nM
half-life at 1 h, 10 µM (in vitro [7]): > 2.42 h
remaining at 1 h, 10 µM [8]: 87.9%
IC50 [5]: 57.6 nM
SMILES: C[C@H](NC(=O)c1c(-c2ccoc2)nnn1Cc1ccc(C(F)(F)F)cc1)c1ccc(C(=O)O)cc1

IC50 [1]: 119 nM
SMILES: COc1ccc(Cn2nnc(-c3ccccc3)c2C(=O)N[C@@H](C)c2ccc(C(=O)O)cc2)cc1OC

Reference: ChEMBL document CHEMBL4376865, “Discovery and Characterization of 1H-1,2,3-Triazole Derivatives as Novel Prostanoid EP4 Receptor Antagonists for Cancer Immunotherapy” (J Med Chem, 2020)
